Target: T1, RlmJ (Escherichia coli, UniProt P37634)
T1 sequence (P37634 1-280): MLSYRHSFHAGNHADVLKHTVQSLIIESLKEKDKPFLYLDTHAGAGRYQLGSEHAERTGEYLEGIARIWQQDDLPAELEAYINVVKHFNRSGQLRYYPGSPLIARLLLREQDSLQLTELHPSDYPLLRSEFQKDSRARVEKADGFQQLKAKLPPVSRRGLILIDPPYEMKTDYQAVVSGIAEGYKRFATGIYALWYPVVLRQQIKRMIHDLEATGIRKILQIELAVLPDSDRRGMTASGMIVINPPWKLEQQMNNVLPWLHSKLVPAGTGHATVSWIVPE
Assay: ITC and DSF
Type: binding

Kd: 1700 ± 200 nM
Structure (SMILES): Nc1ncnc2c1ncn2[C@@H]1O[C@H](C[C@@H](N)CC[C@H](N)C(=O)O)[C@@H](O)[C@H]1O [sinefungin]

Source: publication PMC6546350 (RNA Biology, 2019)
